Values joined by “and” are separate entries in the source; they are usually repeats but may differ in a detail not shown here. Equal entries are not always repeated.
What was measured:
[1] = test system: Staphylococcus aureus biofilms; experiment: S. aureus antibiofilm assay (log-reduction vs no treatment control); assay type: cell-based
Protocol: Briefly, S. aureus biofilms were grown on sterile gauze at 37° C. for 72 hours (gauze was re-inoculated with S. aureus at 24 hours and 48 hours). After incubation, the gauze was rinsed with sterile water and placed onto Mueller Hinton agar (MHA) plates. The compound was dissolved in aqueous (RO water) solution at a concentration of 0.4 mg Ag/cm^2 or 10 mg Ag per 5×5 cm testing and placed on top of the gauze. The plates were incubated for 6 hours at 37° C. The remaining solution containing metal complexes was removed from the biofilm and the biofilm/gauze was neutralized in 10 mL of sodium thioglycolate. The bacteria were agitated to remove them from the gauze and the resulting bacterial suspensions were diluted and spread onto MHA plates which were incubated for 18-24 hours at 37° C. and the resulting viable bacterial colonies were enumerated. The log-reduction of S. aureus was calculated relative to the reduction achieved in the “no treatment” negative control samples. Results represent the average of triplicate data. The assay was repeated upon the aged solid state at a shelf life of 5 months (FIGS. 4A-B).

[2] = Acid-base titration curve (equivalence points); assay type: physicochemical; settings: FIG. 1, inflection points of the curve; listed as JN300118-1
Description: In the various embodiments, sufficient concentrations of the acid or base to transform the first oxidized metal complex into the desired second oxidized metal complex may be determined using acid-base titration. As used herein, the term “acid-base titration” refers to a method of quantitative analysis for determining the concentration of an acid or base by exactly neutralizing it with a standard solution of base or acid having known concentration. A pH indicator may be used to monitor the progress of the acid-base reaction. An acid-base titration curve may be plotted on a graph to show the changes in the pH upon addition of acid or base. As shown for example in FIG. 1, the curve falls near equivalence points (inflection points of the curve). The quantity of acid or base required to reach each equivalence point (e.g., FIG. 1, pH 11.3, 5.7) may be identified from the graph.
At each equivalence point or corresponding pH, the first oxidized metal complex may be transformed into a different second oxidized metal complex. […]

[3] = Solid state stability under ambient conditions, analysed by UV-Vis spectroscopy; assay type: physicochemical; settings: room temperature, ambient air and light, five months
Protocol: Stability evaluation of each compound in its solid state stored under ambient conditions was performed.

[4] = S. aureus biofilm on gauze, 0.4 mg Ag/cm^2 in RO water, 6 hours at 37° C.

[Ag+].[Ag+].[Ag+].[Ag+].[Ag+].[O-][I+]([O-])([O-])([O-])([O-])[O-] [JN111018-3, Pentasilver periodate, reference compound]
antimicrobial activity [1, 4]: antimicrobial activity, yield

Sodium diperiodatoargentate Na5Ag(IO5OH)216H2O [JN091118-2, reference compound]
antimicrobial activity ([1]; S. aureus biofilm as Example 2, but semi-solid formulation (about 0.083 g) dissolved into RO water (1 mL), 0.4 mg Ag/cm^2): Atkinson, antimicrobial activity, yield

K4-1H1-4Ag(IO5OH)2O [JN301118-1]
equivalence point of acid-base titration curve [2]: 11.3 pH and 5.7 pH

diperiodatoargentate potassium salt [JN300518-2a]
solid state stability [3]: bright red crystals, solid state stability,

K5-3H0-2Ag(IO5OH)2 [JN150618-3]
antimicrobial activity [1, 4]: bright red crystals, antimicrobial activity

Reference: US12410064B2, “Preparation of soluble compounds” (EXCITON PHARMA CORP., priority 2019, dated 2025)
